The target in series [1] is T1, SERT (Homo sapiens, UniProt P31645). As to the kind of experiment: in vitro.
Series [2] concerns OCT2 wild-type versus A270S variant. As to the kind of experiment: in vitro. The following applies: human, Transporter selectivity, OCT2 wild-type versus A270S, 100 μM racemic substance, two minutes; given as for A270S.
Description: (§1) All transport experiments were carried out in HEK293 cells stably overexpressing human MATs or OCTs. […] All cells were regularly cultivated in DMEM supplemented with 10% (v/v) FCS, penicillin (100 U/mL) and streptomycin (100 μg/mL)and kept in culture for no longer than 30 passages.
(§2) For the uptake experiments, 300,000 cells were plated in poly-D-lysine precoated 24-well plates 48 h ahead of the transport experiment. On the day of experiment, cells were initially washed once with 37 °C pre-warmed HBSS+ (Hanks buffered salt solution supplemented with 10 mM HEPES) and subsequently incubated with the substrates dissolved in pre-warmed HBSS+ for exactly two minutes. Incubation was stopped by adding ice-cold HBSS+ followed by two washing steps. After this, cells were lysed with 80% acetonitrile containing 10 ng/mL milnacipran as internal standard for high-performance liquid chromatography coupled to tandem mass spectrometry (HPLC-MS/MS) analysis. For every experiment, two additional wells per cell line were lysed using RIPA buffer for protein quantification. Total protein was quantified using the bicinchoninic acid assay [42]. This was later used for normalization of the uptake data.
(§3) Intracellularly accumulated test substances were quantified by HPLC-MS/MS analysis using a Shimadzu Nexera HPLC system with a SIL-30AC autosampler, a CTO-20AC column oven, a LC-30AD pump, and a CBM-20A controller (Shimadzu, Kyoto, Japan). Stereoselective chromatography was carried out on a [sequence] CBH HPLC column (100 × 3 mm inner dimension with 5 μM particle size; Sigma-Aldrich, Darmstadt, Germany) with a corresponding 10 × 3 mm guard column. Reversed phased chromatography was carried out using an ammonium acetate (NH4Ac) buffered aqueous mobile phase with isopropyl alcohol (IPA) as organic solvent. […] The order of elution of the enantiomers was obtained from available reference literature [43] or by applying enantiopure reference compounds to the chiral HPLC. […] However, in every other case where the order of elution was available, the (R)-enantiomer eluted first. Given the structural similarity of the investigated substances and the fact that separation was performed on the same column with almost identical mobile phases, we assume that this order of elution for our compound set is always the (R)- before the (S)-enantiomer.
(§4) Detection was performed with an API 4000 tandem mass spectrometer (AB SCIEX, Darmstadt, Germany) operating in multiple-reaction-monitoring mode. Quantification was performed using the Analyst 1.6.2 software (AB SCIEX, Darmstadt, Germany) and quantified by comparison to standard curves with known concentrations.
(§5) All uptake data were normalized to protein content to account for variation in the number of seeded sells. Transporter-mediated net uptake was calculated by subtracting uptake into empty vector-transfected control cells from uptake into transporter-transfected cells. Kinetic parameters were then determined after non-linear regression following the Michaelis–Menten equation (v = vmax × [S]/(Km + [S])) using GraphPad Prism (Version 5.01 for Windows, GraphPad Software, La Jolla, CA, USA). Vmax refers to the maximum transport velocity and Km is defined as the substance concentration required to reach half of vmax. The intrinsic clearance Clint was calculated as the quotient of vmax over Km.
(§6) HEK293 cells stably overexpressing wild-type or mutant OCT2 were incubated with 100 μM racemic substance for two minutes.
For series [3], the target named is T1, SERT. As to the kind of experiment: Stereoselective uptake into SERT-overexpressing HEK293 cells.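 Note: uptake into HEK293 cells stably expressing human SERT over 2 min, enantiomers measured in cell lysate by chiral HPLC-MS/MS, normalized to total protein.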
The next series addresses T2, OCT2 (Homo sapiens, UniProt O15244).
T2 sequence (O15244 1-555 S270A): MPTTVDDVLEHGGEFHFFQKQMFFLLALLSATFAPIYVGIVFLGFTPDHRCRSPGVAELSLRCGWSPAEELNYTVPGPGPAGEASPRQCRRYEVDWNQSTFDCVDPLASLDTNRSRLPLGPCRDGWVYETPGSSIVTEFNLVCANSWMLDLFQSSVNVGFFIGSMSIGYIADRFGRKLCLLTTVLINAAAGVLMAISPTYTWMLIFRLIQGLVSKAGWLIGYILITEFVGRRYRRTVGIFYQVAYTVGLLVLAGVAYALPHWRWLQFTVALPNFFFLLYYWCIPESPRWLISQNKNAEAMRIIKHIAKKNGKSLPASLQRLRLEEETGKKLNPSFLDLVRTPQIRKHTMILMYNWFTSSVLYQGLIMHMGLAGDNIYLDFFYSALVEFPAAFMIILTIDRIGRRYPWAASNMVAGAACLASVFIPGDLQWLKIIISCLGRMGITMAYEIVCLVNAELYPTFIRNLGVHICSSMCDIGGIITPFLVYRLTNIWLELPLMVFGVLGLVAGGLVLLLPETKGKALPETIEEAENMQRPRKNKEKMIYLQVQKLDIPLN
As to the kind of experiment: Stereoselective uptake into OCT2 (wild-type)-overexpressing HEK293 cells. The following applies: for selectivity ratio at 2 min: human, ratio between enantiomers.

Another series relates to OCT2 A270S variant. As to the kind of experiment: Stereoselective uptake into OCT2 A270S variant-overexpressing HEK293 cells.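 Note: uptake into HEK293 cells stably overexpressing human OCT2 variants, intracellular enantiomers quantified by chiral HPLC-MS/MS and normalized to total protein.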 To be noted: 100 μM racemic substance, two minutes.
The next series addresses T3, OCT3 (Homo sapiens, UniProt O75751).
T3 sequence (O75751 1-556): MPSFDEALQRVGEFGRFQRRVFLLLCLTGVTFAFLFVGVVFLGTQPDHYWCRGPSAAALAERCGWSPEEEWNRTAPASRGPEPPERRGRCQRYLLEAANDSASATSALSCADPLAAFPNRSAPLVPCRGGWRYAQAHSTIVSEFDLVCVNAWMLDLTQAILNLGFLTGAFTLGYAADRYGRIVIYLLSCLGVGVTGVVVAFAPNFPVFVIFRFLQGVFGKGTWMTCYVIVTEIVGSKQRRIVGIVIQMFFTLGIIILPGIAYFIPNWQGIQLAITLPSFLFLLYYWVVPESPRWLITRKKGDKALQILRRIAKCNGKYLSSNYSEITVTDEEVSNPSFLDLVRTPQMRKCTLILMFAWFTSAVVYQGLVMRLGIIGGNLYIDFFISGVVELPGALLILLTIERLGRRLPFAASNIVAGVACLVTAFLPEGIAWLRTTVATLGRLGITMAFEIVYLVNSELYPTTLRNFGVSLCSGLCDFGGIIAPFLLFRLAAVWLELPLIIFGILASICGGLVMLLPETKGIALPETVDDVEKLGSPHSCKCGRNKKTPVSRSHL
As to the kind of experiment: Stereoselective uptake into OCT3-overexpressing HEK293 cells.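 Note: intracellular accumulation in HEK293 cells measured by chiral HPLC-MS/MS after a 2 min substrate exposure at 37 °C, uptake normalized to total protein (bicinchoninic acid assay).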

A further series has as its target DAT (Homo sapiens, UniProt Q01959). The series can be described thus: Stereoselective uptake into DAT-overexpressing HEK293 cells.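 Note: intracellular accumulation measured by chiral HPLC-MS/MS in stably transfected HEK293 cells, normalized to total protein.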 To be noted: DAT; result in words.
The next series has as its target T4, OCT1 (Homo sapiens, UniProt O15245).
T4 sequence (O15245 1-554): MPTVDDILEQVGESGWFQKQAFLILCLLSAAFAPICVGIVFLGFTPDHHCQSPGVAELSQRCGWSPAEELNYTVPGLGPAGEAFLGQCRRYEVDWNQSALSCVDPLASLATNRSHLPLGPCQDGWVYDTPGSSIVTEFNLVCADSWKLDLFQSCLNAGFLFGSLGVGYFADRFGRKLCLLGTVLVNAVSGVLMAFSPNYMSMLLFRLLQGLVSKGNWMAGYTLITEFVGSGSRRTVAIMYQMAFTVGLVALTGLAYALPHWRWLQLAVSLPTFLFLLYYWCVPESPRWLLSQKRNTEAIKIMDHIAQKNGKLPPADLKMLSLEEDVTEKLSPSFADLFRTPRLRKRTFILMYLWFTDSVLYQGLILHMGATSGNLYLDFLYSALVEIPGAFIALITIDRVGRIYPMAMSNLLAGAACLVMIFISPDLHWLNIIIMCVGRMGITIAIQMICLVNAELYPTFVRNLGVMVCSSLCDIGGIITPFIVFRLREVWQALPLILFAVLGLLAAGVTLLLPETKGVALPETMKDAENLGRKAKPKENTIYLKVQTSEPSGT
As to the kind of experiment: Stereoselective uptake into OCT1-overexpressing HEK293 cells.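 For all read-outs here: enantiomers quantified inside cells by chiral HPLC-MS/MS, uptake normalized to total protein from bicinchoninic acid assay, substrates applied in HBSS+ buffer.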 The following applies: for selectivity ratio at 2 min: human.

For another series, the target named is NET (Homo sapiens, UniProt P23975). As to the kind of experiment: Stereoselective uptake into NET-overexpressing HEK293 cells.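 Note: intracellular enantiomers quantified in cell lysates by chiral HPLC-MS/MS after a 2 min substrate incubation, with uptake normalized to total cellular protein.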 To be noted: NET; result in words.
Sequence of NET (P23975 whole entry): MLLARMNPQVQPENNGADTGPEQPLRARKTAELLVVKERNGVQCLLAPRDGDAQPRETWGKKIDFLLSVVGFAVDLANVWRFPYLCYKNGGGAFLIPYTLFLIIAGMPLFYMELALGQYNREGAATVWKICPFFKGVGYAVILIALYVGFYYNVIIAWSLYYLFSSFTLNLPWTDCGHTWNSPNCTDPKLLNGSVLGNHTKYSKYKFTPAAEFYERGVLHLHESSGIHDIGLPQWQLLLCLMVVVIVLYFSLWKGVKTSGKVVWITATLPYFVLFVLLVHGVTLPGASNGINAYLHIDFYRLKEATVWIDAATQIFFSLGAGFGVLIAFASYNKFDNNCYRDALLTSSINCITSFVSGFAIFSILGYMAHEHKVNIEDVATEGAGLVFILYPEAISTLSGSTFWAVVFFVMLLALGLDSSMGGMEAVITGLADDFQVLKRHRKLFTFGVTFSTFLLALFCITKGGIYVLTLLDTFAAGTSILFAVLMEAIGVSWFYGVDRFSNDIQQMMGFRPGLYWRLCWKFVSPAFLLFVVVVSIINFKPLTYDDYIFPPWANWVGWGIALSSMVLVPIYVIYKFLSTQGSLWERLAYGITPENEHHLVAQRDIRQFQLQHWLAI

T1 sequence (P31645 whole entry): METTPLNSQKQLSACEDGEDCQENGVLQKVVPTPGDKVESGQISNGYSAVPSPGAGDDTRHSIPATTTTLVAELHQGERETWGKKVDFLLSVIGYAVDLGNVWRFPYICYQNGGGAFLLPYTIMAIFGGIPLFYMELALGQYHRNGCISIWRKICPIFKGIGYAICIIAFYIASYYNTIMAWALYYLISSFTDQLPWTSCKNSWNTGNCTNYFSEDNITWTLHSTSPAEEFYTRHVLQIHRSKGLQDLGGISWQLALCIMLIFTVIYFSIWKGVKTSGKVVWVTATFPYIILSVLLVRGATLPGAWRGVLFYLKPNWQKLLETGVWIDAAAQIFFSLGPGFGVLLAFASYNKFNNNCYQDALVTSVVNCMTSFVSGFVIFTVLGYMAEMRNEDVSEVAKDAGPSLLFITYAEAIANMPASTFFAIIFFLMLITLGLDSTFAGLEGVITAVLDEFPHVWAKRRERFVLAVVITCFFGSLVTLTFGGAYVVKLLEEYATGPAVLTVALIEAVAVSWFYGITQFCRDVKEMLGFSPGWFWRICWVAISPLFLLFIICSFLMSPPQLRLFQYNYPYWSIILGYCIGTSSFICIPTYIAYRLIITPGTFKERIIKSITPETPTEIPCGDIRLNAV
Sequence of DAT (Q01959 whole entry): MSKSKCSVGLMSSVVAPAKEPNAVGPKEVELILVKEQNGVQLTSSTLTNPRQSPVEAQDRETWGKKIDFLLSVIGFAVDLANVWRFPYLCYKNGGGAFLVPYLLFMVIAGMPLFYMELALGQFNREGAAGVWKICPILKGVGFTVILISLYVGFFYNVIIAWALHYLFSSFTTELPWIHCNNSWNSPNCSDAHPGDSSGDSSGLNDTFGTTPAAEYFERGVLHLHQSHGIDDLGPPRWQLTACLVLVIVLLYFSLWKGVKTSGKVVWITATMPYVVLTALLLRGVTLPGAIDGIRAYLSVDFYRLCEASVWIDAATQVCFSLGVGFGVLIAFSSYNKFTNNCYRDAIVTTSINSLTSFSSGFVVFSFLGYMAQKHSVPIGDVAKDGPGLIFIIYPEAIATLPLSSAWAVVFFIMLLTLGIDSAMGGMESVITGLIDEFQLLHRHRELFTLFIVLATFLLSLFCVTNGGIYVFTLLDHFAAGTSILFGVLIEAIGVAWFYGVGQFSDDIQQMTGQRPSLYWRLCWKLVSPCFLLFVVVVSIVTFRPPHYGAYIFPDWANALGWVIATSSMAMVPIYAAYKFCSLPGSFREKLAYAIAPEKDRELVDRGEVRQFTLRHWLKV
Description for NET: as §1, §2
Intracellularly accumulated test substances were quantified by HPLC-MS/MS analysis using a Shimadzu Nexera HPLC system with a SIL-30AC autosampler, a CTO-20AC column oven, a LC-30AD pump, and a CBM-20A controller (Shimadzu, Kyoto, Japan). Stereoselective chromatography was carried out on a [sequence] CBH HPLC column (100 × 3 mm inner dimension with 5 μM particle size; Sigma-Aldrich, Darmstadt, Germany) with a corresponding 10 × 3 mm guard column. Reversed phased chromatography was carried out using an ammonium acetate (NH4Ac) buffered aqueous mobile phase with isopropyl alcohol (IPA) as organic solvent. […] The order of elution of the enantiomers was obtained from available reference literature [43] or by applying enantiopure reference compounds to the chiral HPLC. […] Given the structural similarity of the investigated substances and the fact that separation was performed on the same column with almost identical mobile phases, we assume that this order of elution for our compound set is always the (R)- before the (S)-enantiomer.
as §4, §5
Description for OCT2 A270S variant: as §1, §2, §3, §4, §5, §6

Turning to `CNCC(O)c1ccc(O)c(OC)c1` (single isomer, unassigned) [Metanephrine-1, Metanephrine], at SERT [1], the selectivity ratio was found to be 1.01. Besides, the selectivity ratio at 2 min, 100 μM in [2] stood at 1.2. In addition, the “Stereoselectivity Km” value was determined as 1.09 fold at SERT [3] and 1.19 fold at OCT3 (OCT3, ratio between enantiomers, given as for (R) or for 1 (first-eluting)). In addition, the “Stereoselectivity Vmax” value is recorded as 1.08 fold on SERT [3] and 1.19 fold at OCT3 (OCT3, ratio between enantiomers, given as for (R) or for 1). The “Clint ± SEM” value at SERT [3] (SERT, quotient of vmax over Km) is reported as 0.58 mL × g Protein^−1 × min^−1; at OCT2 (OCT2, quotient of vmax over Km), 20.6 mL × g Protein^−1 × min^−1; on OCT3 (OCT3, quotient of vmax over Km), 25.9 mL × g Protein^−1 × min^−1; at OCT1 (OCT1, quotient of vmax over Km), 8.09 mL × g Protein^−1 × min^−1. Further, the “Vmax ± SEM” value on OCT2 (HEK293 cells overexpressing human OCT2, racemic substrate, two minutes, net uptake) is recorded as 1127 pmol × mg Protein^−1 × min^−1; on OCT1 (HEK293 cells overexpressing human OCT1, racemic substrate, two minutes, net uptake), 1082 pmol × mg Protein^−1 × min^−1. In addition, the selectivity ratio at 2 min on OCT2 (Stereoselectivity ClInt, OCT2, given as for (R) or for 1) came to 2.66; at OCT2 (Stereoselectivity Km, OCT2, given as for (S) or for 2 (second-eluting)), 1.25; on OCT2 (Stereoselectivity Vmax, OCT2, given as for (R) or for 1), 2.13; at OCT3 (human) it was 1; on OCT1 (Stereoselectivity ClInt), 1.16; at OCT1 (Stereoselectivity Km, OCT1, ratio between enantiomers, given as for (S) or for 2 (second-eluting)), 1.09. Besides, the selectivity ratio at 2 min on OCT1 (Stereoselectivity Vmax, OCT1, ratio between enantiomers, given as for (R) or for 1) is 1.06. Moreover, in the series with OCT2 A270S variant, the “Net uptake by A270S variant in comparison to the wild-type” value was determined as 120%. Further, the Saturable net uptake result on DAT and at NET was “No saturable net uptake” each time.
